This assay has as its target T1, FAK enzyme (6 His tagged kinase domain, GenBank NP—722560) (Homo sapiens, UniProt Q05397).
T1 construct: 6 His; made in house; host or cells: insect cell culture infected with baculovirus
Put plainly: In vitro enzyme assay (a): sandwich ELISA of FAK tyrosine kinase activity on polyGAT peptide, TMB colorimetric endpoint. Format: biochemical. Particulars: in vitro Enzyme Assay test (a); ATP at Km; geometric mean of n > 1 measurements, values marked * tested once. Summed up:
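Recombinant His-tagged FAK kinase domain (baculovirus/insect cells) phosphorylated plate-coated polyGAT with ATP at Km, MgCl2/MnCl2, HEPES pH 7.4, 25 min at room temperature before EDTA stop. Phosphotyrosine detected by HRP-4G10 antibody and TMB absorbance at 450 nm; IC50 from 12-point curve anchored to DMSO and staurosporine controls.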
For orientation: ELISA stands for enzyme-linked immunosorbent assay.
T1 sequence (Q05397 422-680 limits assumed): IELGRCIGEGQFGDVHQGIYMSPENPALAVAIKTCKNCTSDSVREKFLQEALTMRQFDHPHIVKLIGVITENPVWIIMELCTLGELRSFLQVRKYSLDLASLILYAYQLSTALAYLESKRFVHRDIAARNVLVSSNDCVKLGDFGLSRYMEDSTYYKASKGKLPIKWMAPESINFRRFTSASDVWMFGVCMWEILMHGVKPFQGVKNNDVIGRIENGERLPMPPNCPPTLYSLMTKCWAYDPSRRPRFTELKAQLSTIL
On to `CNC(=O)c1cc(OC)ccc1Nc1cc(Nc2cn(C)nc2C)ncc1C(F)(F)F` [Example 10.01, 2-[[2-[(1,3-dimethylpyrazol-4-yl)amino]-5-(trifluoromethyl)-4-pyridyl]amino]-5-methoxy-N-methyl-benzamide], for which the IC50 – broadly, the concentration needed to halve the response being measured – came to 8 nM. In the case of `CNC(=O)c1ccc(C)cc1Nc1cc(Nc2cn(C)nc2C)ncc1C(F)(F)F` [Example 10.02, 2-[[2-[(1,3-Dimethylpyrazol-4-yl)amino]-5-(trifluoromethyl)-4-pyridyl]amino]-N,4-dimethyl-benzamide] it was 13 nM; in that of `CNC(=O)c1cc(C)ccc1Nc1cc(Nc2cn(C)nc2C)ncc1C(F)(F)F` [Example 10.03, 2-[[2-[(1,3-dimethylpyrazol-4-yl)amino]-5-(trifluoromethyl)-4-pyridyl]amino]-N,5-dimethyl-benzamide], 2 nM. `CNC(=O)c1ccc(OC)cc1Nc1cc(Nc2cn(C)nc2C)ncc1C(F)(F)F` [Example 10.04, 2-[[2-[(1,3-dimethylpyrazol-4-yl)amino]-5-(trifluoromethyl)-4-pyridyl]amino]-4-methoxy-N-methyl-benzamide] returned an IC50 of 53 nM. Against the preceding compound, the IC50 is about 26-fold higher. For the compound `CNC(=O)c1ccc(F)cc1Nc1cc(Nc2cn(C)nc2C)ncc1C(F)(F)F` [Example 10.05, 2-[[2-[(1,3-dimethylpyrazol-4-yl)amino]-5-(trifluoromethyl)-4-pyridyl]amino]-4-fluoro-N-methyl-benzamide], half-maximal inhibition (IC50) required 9 nM. `CNC(=O)c1cccc(F)c1Nc1cc(Nc2cn(C)nc2C)ncc1C(F)(F)F` [Example 10.06, 2-[[2-[(1,3-dimethylpyrazol-4-yl)amino]-5-(trifluoromethyl)-4-pyridyl]amino]-3-fluoro-N-methyl-benzamide] came in with an IC50 of 10 nM. Consider `CNC(=O)c1cc(Cl)ccc1Nc1cc(Nc2cn(C)nc2C)ncc1C(F)(F)F` [Example 10.07, 5-chloro-2-[[2-[(1,3-dimethylpyrazol-4-yl)amino]-5-(trifluoromethyl)-4-pyridyl]amino]-N-methyl-benzamide], for which the IC50 is 14 nM. `CONC(=O)c1ccccc1Nc1cc(Nc2cn(C)nc2C)ncc1C(F)(F)F` [Example 10.08, 2-[[2-[(1,3-dimethylpyrazol-4-yl)amino]-5-(trifluoromethyl)-4-pyridyl]amino]-N-methoxy-benzamide]: the IC50 turned out to be 5 nM. `CNC(=O)c1ccc(Cl)cc1Nc1cc(Nc2cn(C)nc2C)ncc1C(F)(F)F` [Example 10.09, 4-chloro-2-[[2-[(1,3-dimethylpyrazol-4-yl)amino]-5-(trifluoromethyl)-4-pyridyl]amino]-N-methyl-benzamide] showed an IC50 of 7 nM. Take `CNC(=O)c1cc(SC)ccc1Nc1cc(Nc2cn(C)nc2C)ncc1C(F)(F)F` [Example 10.10, 2-[[2-[(1,3-dimethylpyrazol-4-yl)amino]-5-(trifluoromethyl)-4-pyridyl]amino]-N-methyl-5-methylsulfanyl-benzamide]: the IC50 was 11 nM. Consider `CNC(=O)c1cc(N2CCOCC2)ccc1Nc1cc(Nc2cn(C)nc2C)ncc1C(F)(F)F` [Example 10.11, 2-[[2-[(1,3-dimethylpyrazol-4-yl)amino]-5-(trifluoromethyl)-4-pyridyl]amino]-N-methyl-5-morpholino-benzamide], for which inhibition was half-maximal at 26 nM (IC50). `CNC(=O)c1ccc(S(C)(=O)=O)cc1Nc1cc(Nc2cn(C)nc2C)ncc1C(F)(F)F` [Example 10.13, 2-[[2-[(1,3-dimethylpyrazol-4-yl)amino]-5-(trifluoromethyl)-4-pyridyl]amino]-N-methyl-4-methylsulfonyl-benzamide]: the IC50 worked out at 462 nM. In turn, `CNC(=O)c1c(Nc2cc(Nc3cc(C)nn3C)ncc2C(F)(F)F)cccc1OC` [Example 11.01, 2-[[2-[(2,5-dimethylpyrazol-3-yl)amino]-5-(trifluoromethyl)-4-pyridyl]amino]-6-methoxy-N-methyl-benzamide] came in with an IC50 of 5 nM. `CNC(=O)c1nn(C)cc1Nc1cc(Nc2cccc3c2C(=O)N(C)CC3)c(Cl)cn1` [Example 12.01, 4-[[5-chloro-4-[(2-methyl-1-oxo-3,4-dihydroisoquinolin-8-yl)amino]-2-pyridyl]amino]-N,1-dimethyl-pyrazole-3-carboxamide]: the IC50 turned out to be 915 nM. Take `CN(C)C(=O)c1nn(C)cc1Nc1cc(Nc2cccc3c2C(=O)N(C)CC3)c(Cl)cn1` [Example 12.02, 4-[[5-chloro-4-[(2-methyl-1-oxo-3,4-dihydroisoquinolin-8-yl)amino]-2-pyridyl]amino]-N,N,1-trimethyl-pyrazole-3-carboxamide]: half-maximal inhibition (IC50) required 1360 nM. In the case of `Cc1n[nH]cc1Nc1cc(Nc2cccc3c2C(=O)N(C)CC3)c(Cl)cn1` [Example 12.03, 8-[[5-chloro-2-[(3-methyl-1H-pyrazol-4-yl)amino]-4-pyridyl]amino]-2-methyl-3,4-dihydroisoquinolin-1-one] it was 2 nM. In the case of `COCc1nn(C)cc1Nc1cc(Nc2cccc3c2C(=O)N(C)CC3)c(Cl)cn1` [Example 12.04, 8-[[5-chloro-2-[[3-(methoxymethyl)-1-methyl-pyrazol-4-yl]amino]-4-pyridyl]amino]-2-methyl-3,4-dihydroisoquinolin-1-one] it was 22 nM; in that of `CN1CCc2cccc(Nc3cc(Nc4cn(C)nc4C#N)ncc3Cl)c2C1=O` [Example 12.05, 4-[[5-chloro-4-[(2-methyl-1-oxo-3,4-dihydroisoquinolin-8-yl)amino]-2-pyridyl]amino]-1-methyl-pyrazole-3-carbonitrile], 20 nM; in that of `COc1nn(C)cc1Nc1cc(Nc2cccc3c2C(=O)N(C)CC3)c(Cl)cn1` [Example 12.06, 8-[[5-chloro-2-[(3-methoxy-1-methyl-pyrazol-4-yl)amino]-4-pyridyl]amino]-2-methyl-3,4-dihydroisoquinolin-1-one], 8 nM. As for `CNC(=O)c1ccccc1Nc1cc(Nc2cn(C)nc2C(=O)NC)ncc1C(F)(F)F` [Example 12.07, N,1-dimethyl-4-[[4-[[2-(methylcarbamoyl)phenyl]amino]-5-(trifluoromethyl)-2-pyridyl]amino]pyrazole-3-carboxamide], the IC50 came out at 171 nM. For `CNC(=O)c1ccccc1Nc1cc(Nc2cn(C)nc2C(=O)N(C)C)ncc1C(F)(F)F` [Example 12.08, N,N,1-trimethyl-4-[[4-[[2-(methylcarbamoyl)phenyl]amino]-5-(trifluoromethyl)-2-pyridyl]amino]pyrazole-3-carboxamide], half-maximal inhibition (IC50) required 482 nM. This IC50 is about 2.8-fold higher than that of the compound before. In turn, `CNC(=O)c1ccccc1Nc1cc(Nc2c[nH]nc2C)ncc1C(F)(F)F` [Example 12.09, N-methyl-2-[[2-[(3-methyl-1H-pyrazol-4-yl)amino]-5-(trifluoromethyl)-4-pyridyl]amino]benzamide] came in with an IC50 of 3 nM. `CNC(=O)c1ccccc1Nc1cc(Nc2cn(C)nc2COC)ncc1C(F)(F)F` [Example 12.10, 2-[[2-[[3-(methoxymethyl)-1-methyl-pyrazol-4-yl]amino]-5-(trifluoromethyl)-4-pyridyl]amino]-N-methyl-benzamide]: it took 10 nM to reach half-maximal inhibition (IC50). Regarding `CNC(=O)c1ccccc1Nc1cc(Nc2cn(C)nc2C#N)ncc1C(F)(F)F` [Example 12.11, 2-[[2-[(3-cyano-1-methyl-pyrazol-4-yl)amino]-5-(trifluoromethyl)-4-pyridyl]amino]-N-methyl-benzamide], the IC50 was determined as 15 nM.

The values above are taken from US8569298B2, “Pyridine compounds” (Astrazeneca AB, priority 2008, dated 2013).
